Columns and labels:
Type in all cases: in vivo
[1] = system: Echinochloa oryzoides (Ard.) Fritsch.; assay: Preemergence weed control under flooded paddy conditions, ECHORC (Watergrass (Calif.)); settings: flooded paddy; for ECHORC: preemergence weeds, herbicidal effect rating 0-9, three to four weeks after treatment; for herbicidal effect rating, ECHORC / ECHORC herbicidal rating: preemergence
Cyperus iria = assay: Preemergence weed control under flooded paddy conditions, CYPIR (Rice Flatsedge); settings: flooded paddy; for CYPIR: preemergence weeds, herbicidal effect rating 0-9, three to four weeks after treatment; for herbicidal effect rating, CYPIR / CYPIR herbicidal rating: preemergence
[2] = system: Cyperus serotinus, Rottb.; assay: Preemergence weed control under flooded paddy conditions, CYPSE (Flatsedge); settings: for CYPSE: preemergence weeds, herbicidal effect rating 0-9, three to four weeks after treatment; for herbicidal effect rating, CYPSE / CYPSE herbicidal rating: preemergence
[3] = system: Monochoria vaginalis, Presl.; assay: Preemergence weed control under flooded paddy conditions, MOOVA (Monochoria); settings: flooded paddy; for MOOVA: preemergence weeds, herbicidal effect rating 0-9, three to four weeks after treatment; for herbicidal effect rating, MOOVA / MOOVA herbicidal rating: preemergence
Sagittaria pygmaea, L. = assay: Preemergence weed control under flooded paddy conditions, SAGPY (Arrowhead (Pygmaea)); settings: flooded paddy; for SAGPY: preemergence weeds, herbicidal effect rating 0-9, three to four weeks after treatment; for herbicidal effect rating, SAGPY / SAGPY herbicidal rating: preemergence
[4] = Rate 0.0320 kg/ha, rated 3-4 weeks after treatment
[5] = Rate 0.0620 kg/ha, rated 3-4 weeks after treatment
[6] = Rate 0.1250 kg/ha, rated 3-4 weeks after treatment
[7] = Rate 0.2500 kg/ha, rated 3-4 weeks after treatment
[8] = 0.0320 kg/ha, rated three to four weeks after treatment
[9] = 0.0620 kg/ha, rated three to four weeks after treatment
[10] = 0.1250 kg/ha, rated three to four weeks after treatment
[11] = 0.2500 kg/ha, rated three to four weeks after treatment
[12] = Rate 0.0320 kg/ha, rated three to four weeks after treatment
[13] = Rate 0.0620 kg/ha, rated three to four weeks after treatment
[14] = Rate 0.1250 kg/ha, rated three to four weeks after treatment
[15] = Rate 0.2500 kg/ha, rated three to four weeks after treatment
[16] = Rate 0.5000 kg/ha, rated three to four weeks after treatment

SMILES: COc1cccc(CC(=O)OCc2nsc3ccc(-n4c(=O)cc(C(F)(F)F)n(C)c4=O)cc23)c1 [Example 454, 2,4(1H,3H)-Pyrimidinedione, 3-[3-(hydroxymethyl)-1,2-benzisothiazol-5-yl]-1-methyl-6-(trifluoromethyl)-, (m-methoxyphenyl)acetate (ester)]
- ECHORC ([1]; 0.0320 kg/ha): 3.0
- ECHORC ([1]; 0.0620 kg/ha): 3.0
- ECHORC ([1]; 0.1250 kg/ha): 6.0
- ECHORC ([1]; 0.2500 kg/ha): 7.0
- CYPIR (Cyperus iria; 0.0320 kg/ha): 0.0
- CYPIR (Cyperus iria; 0.0620 kg/ha): 1.0
- CYPIR (Cyperus iria; 0.1250 kg/ha): 6.0
- CYPIR (Cyperus iria; 0.2500 kg/ha): 9.0
- CYPSE ([2]; 0.0320 kg/ha): 0.0
- CYPSE ([2]; 0.0620 kg/ha): 0.0
- CYPSE ([2]; 0.1250 kg/ha): 4.0
- CYPSE ([2]; 0.2500 kg/ha): 8.0
- MOOVA ([3]; 0.0320 kg/ha): 2.0
- MOOVA ([3]; 0.0620 kg/ha): 7.0
- MOOVA ([3]; 0.1250 kg/ha): 9.0
- MOOVA ([3]; 0.2500 kg/ha): 9.0
- SAGPY (Sagittaria pygmaea, L.; 0.0320 kg/ha): 0.0
- SAGPY (Sagittaria pygmaea, L.; 0.0620 kg/ha): 2.0
- SAGPY (Sagittaria pygmaea, L.; 0.1250 kg/ha): 3.0
- SAGPY (Sagittaria pygmaea, L.; 0.2500 kg/ha): 6.0

SMILES: Cc1ccc(OCC(=O)OCCCCCO[Si](C)(C)C(C)(C)C)c(-c2nsc3ccc(-n4c(=O)cc(C(F)(F)F)n(C)c4=O)cc23)c1 [Example 534, Acetic acid, {{2-{5-[3,6-dihydro-3-methyl-2,6-dioxo-4-(trifluoromethyl)-1(2H)-pyrimidinyl]-1,2-benzisothiazol-3-yl}-p-tolyl}oxy}-, 5-(tert-butyldimethylsiloxy)pentyl ester]
- herbicidal effect rating, ECHORC [1, 4]: 3.5
- herbicidal effect rating, ECHORC [1, 5]: 4.5
- herbicidal effect rating, ECHORC [1, 6]: 9.0
- herbicidal effect rating, ECHORC [1, 7]: 9.0
- herbicidal effect rating, CYPIR (Cyperus iria; [4]): 0.0
- herbicidal effect rating, CYPIR (Cyperus iria; [5]): 3.0
- herbicidal effect rating, CYPIR (Cyperus iria; [6]): 3.0
- herbicidal effect rating, CYPIR (Cyperus iria; [7]): 9.0
- herbicidal effect rating, CYPSE [2, 4]: 0.0
- herbicidal effect rating, CYPSE [2, 5]: 0.0
- herbicidal effect rating, CYPSE [2, 6]: 0.0
- herbicidal effect rating, CYPSE [2, 7]: 0.0
- herbicidal effect rating, MOOVA [3, 4]: 4.0
- herbicidal effect rating, MOOVA [3, 5]: 9.0
- herbicidal effect rating, MOOVA [3, 6]: 9.0
- herbicidal effect rating, MOOVA [3, 7]: 9.0
- herbicidal effect rating, SAGPY (Sagittaria pygmaea, L.; [4]): 0.0
- herbicidal effect rating, SAGPY (Sagittaria pygmaea, L.; [5]): 0.0
- herbicidal effect rating, SAGPY (Sagittaria pygmaea, L.; [6]): 0.0
- herbicidal effect rating, SAGPY (Sagittaria pygmaea, L.; [7]): 0.0

SMILES: Cn1c(C(F)(F)F)cc(=O)n(-c2ccc3snc(COC(=O)c4ccco4)c3c2)c1=O [Example 497, 2,4(1H,3H)-Pyrimidinedione, 3-[3-(hydroxymethyl)-1,2-benzisothiazol-5-yl]-1-methyl-6-(trifluoromethyl)-, 2-furoate (ester)]
- ECHORC herbicidal rating [1, 8]: 0.0
- ECHORC herbicidal rating [1, 9]: 0.0
- ECHORC herbicidal rating [1, 10]: 4.0
- ECHORC herbicidal rating [1, 11]: 7.0
- CYPIR herbicidal rating (Cyperus iria; [8]): 5.0
- CYPIR herbicidal rating (Cyperus iria; [9]): 6.0
- CYPIR herbicidal rating (Cyperus iria; [10]): 9.0
- CYPIR herbicidal rating (Cyperus iria; [11]): 9.0
- CYPSE herbicidal rating [2, 10]: 6.0
- CYPSE herbicidal rating [2, 11]: 9.0
- MOOVA herbicidal rating [3, 8]: 6.0
- MOOVA herbicidal rating [3, 9]: 7.0
- MOOVA herbicidal rating [3, 10]: 9.0
- MOOVA herbicidal rating [3, 11]: 9.0
- SAGPY herbicidal rating (Sagittaria pygmaea, L.; [8]): 0.0
- SAGPY herbicidal rating (Sagittaria pygmaea, L.; [9]): 0.0
- SAGPY herbicidal rating (Sagittaria pygmaea, L.; [10]): 2.0
- SAGPY herbicidal rating (Sagittaria pygmaea, L.; [11]): 6.0

SMILES: Cn1c(C(F)(F)F)cc(=O)n(-c2ccc3snc(C(C#N)=CC4CC4)c3c2)c1=O [Example 458, 1,2-Benzisothiazole-3-acetonitrile, alpha(cyclopropylmethylene)-5-[3,6-dihydro-3-methyl-2,6-dioxo-4-(trifluoromethyl)-1(2H)-pyrimidinyl]-, (E)- and (Z)-]
- ECHORC ([1]; 0.0320 kg/ha): 5.0
- ECHORC ([1]; 0.0620 kg/ha): 6.0
- ECHORC ([1]; 0.1250 kg/ha): 7.0
- ECHORC ([1]; 0.2500 kg/ha): 8.0
- CYPIR (Cyperus iria; 0.0320 kg/ha): 0.0
- CYPIR (Cyperus iria; 0.0620 kg/ha): 4.0
- CYPIR (Cyperus iria; 0.1250 kg/ha): 7.0
- CYPIR (Cyperus iria; 0.2500 kg/ha): 7.0
- CYPSE ([2]; 0.0320 kg/ha): 2.0
- MOOVA ([3]; 0.0320 kg/ha): 4.0
- MOOVA ([3]; 0.0620 kg/ha): 6.0
- MOOVA ([3]; 0.1250 kg/ha): 9.0
- MOOVA ([3]; 0.2500 kg/ha): 9.0
- SAGPY (Sagittaria pygmaea, L.; 0.0320 kg/ha): 2.0
- SAGPY (Sagittaria pygmaea, L.; 0.0620 kg/ha): 2.0
- SAGPY (Sagittaria pygmaea, L.; 0.1250 kg/ha): 6.0
- SAGPY (Sagittaria pygmaea, L.; 0.2500 kg/ha): 8.0

SMILES: Cn1c(C(F)(F)F)cc(=O)n(-c2ccc3snc(COC(=O)Nc4ccccc4)c3c2)c1=O [Example 375, 2,4(1H,3H)-Pyrimidinedione, 3-[3-(hydroxymethyl)-1,2-benzisothiazol-5-yl]-1-methyl-6-(trifluoromethyl)-, phenylcarbamate (ester)]
- herbicidal effect rating, ECHORC [1, 12]: 6.0
- herbicidal effect rating, ECHORC [1, 13]: 6.0
- herbicidal effect rating, ECHORC [1, 14]: 9.0
- herbicidal effect rating, ECHORC [1, 15]: 9.0
- herbicidal effect rating, CYPIR (Cyperus iria; [12]): 3.0
- herbicidal effect rating, CYPIR (Cyperus iria; [13]): 4.0
- herbicidal effect rating, CYPIR (Cyperus iria; [14]): 6.0
- herbicidal effect rating, CYPIR (Cyperus iria; [15]): 9.0
- herbicidal effect rating, CYPSE [2, 12]: 0.0
- herbicidal effect rating, CYPSE [2, 13]: 0.0
- herbicidal effect rating, CYPSE [2, 14]: 4.0
- herbicidal effect rating, CYPSE [2, 15]: 7.0
- herbicidal effect rating, MOOVA [3, 12]: 9.0
- herbicidal effect rating, MOOVA [3, 13]: 9.0
- herbicidal effect rating, MOOVA [3, 14]: 9.0
- herbicidal effect rating, MOOVA [3, 15]: 9.0
- herbicidal effect rating, SAGPY (Sagittaria pygmaea, L.; [12]): 7.0
- herbicidal effect rating, SAGPY (Sagittaria pygmaea, L.; [13]): 9.0
- herbicidal effect rating, SAGPY (Sagittaria pygmaea, L.; [14]): 9.0
- herbicidal effect rating, SAGPY (Sagittaria pygmaea, L.; [15]): 9.0

SMILES: COc1ccc(C)cc1-c1nsc2cc(Cl)c(-n3c(=O)cc(C(F)(F)F)n(C)c3=O)cc12 [Example 442, 2,4(1H,3H)-Pyrimidinedione, 3-[6-chloro-3-(6-methoxy-m-tolyl)-1,2-benzisothiazol-5-yl]-1-methyl-6-(trifluoromethyl)-]
- ECHORC ([1]; 0.0320 kg/ha): 8.3
- ECHORC ([1]; 0.0620 kg/ha): 9.0
- ECHORC ([1]; 0.1250 kg/ha): 9.0
- ECHORC ([1]; 0.2500 kg/ha): 9.0
- CYPIR (Cyperus iria; 0.0320 kg/ha): 4.3
- CYPIR (Cyperus iria; 0.0620 kg/ha): 6.3
- CYPIR (Cyperus iria; 0.1250 kg/ha): 8.7
- CYPIR (Cyperus iria; 0.2500 kg/ha): 9.0
- CYPSE ([2]; 0.0320 kg/ha): 0.0
- CYPSE ([2]; 0.0620 kg/ha): 0.0
- CYPSE ([2]; 0.1250 kg/ha): 0.0
- CYPSE ([2]; 0.2500 kg/ha): 4.5
- MOOVA ([3]; 0.0320 kg/ha): 6.0
- MOOVA ([3]; 0.0620 kg/ha): 8.3
- MOOVA ([3]; 0.1250 kg/ha): 9.0
- MOOVA ([3]; 0.2500 kg/ha): 9.0
- SAGPY (Sagittaria pygmaea, L.; 0.0320 kg/ha): 1.3
- SAGPY (Sagittaria pygmaea, L.; 0.0620 kg/ha): 1.7
- SAGPY (Sagittaria pygmaea, L.; 0.1250 kg/ha): 2.0
- SAGPY (Sagittaria pygmaea, L.; 0.2500 kg/ha): 4.0

SMILES: Cn1c(C(F)(F)F)cc(=O)n(-c2ccc3snc(COS(C)(=O)=O)c3c2)c1=O [Example 363, 2,4(1H,3H)-Pyrimidinedione, 3-[3-(hydroxymethyl)-1,2-benzisothiazol-5-yl]-1-methyl-6-(trifluoromethyl)-, methanesulfonate (ester)]
- herbicidal effect rating, ECHORC [1, 12]: 3.0
- herbicidal effect rating, ECHORC [1, 13]: 4.0
- herbicidal effect rating, ECHORC [1, 14]: 5.0
- herbicidal effect rating, ECHORC [1, 15]: 6.0
- herbicidal effect rating, ECHORC [1, 16]: 7.0
- herbicidal effect rating, CYPIR (Cyperus iria; [12]): 6.0
- herbicidal effect rating, CYPIR (Cyperus iria; [13]): 7.0
- herbicidal effect rating, CYPIR (Cyperus iria; [14]): 7.0
- herbicidal effect rating, CYPIR (Cyperus iria; [15]): 7.0
- herbicidal effect rating, CYPIR (Cyperus iria; [16]): 8.0
- herbicidal effect rating, CYPSE [2, 12]: 0.0
- herbicidal effect rating, CYPSE [2, 13]: 0.0
- herbicidal effect rating, CYPSE [2, 14]: 5.0
- herbicidal effect rating, CYPSE [2, 15]: 7.0
- herbicidal effect rating, CYPSE [2, 16]: 7.0
- herbicidal effect rating, MOOVA [3, 12]: 9.0
- herbicidal effect rating, MOOVA [3, 13]: 9.0
- herbicidal effect rating, MOOVA [3, 14]: 9.0
- herbicidal effect rating, MOOVA [3, 15]: 9.0
- herbicidal effect rating, MOOVA [3, 16]: 9.0
- herbicidal effect rating, SAGPY (Sagittaria pygmaea, L.; [12]): 3.0
- herbicidal effect rating, SAGPY (Sagittaria pygmaea, L.; [13]): 5.0
- herbicidal effect rating, SAGPY (Sagittaria pygmaea, L.; [14]): 7.0
- herbicidal effect rating, SAGPY (Sagittaria pygmaea, L.; [15]): 9.0
- herbicidal effect rating, SAGPY (Sagittaria pygmaea, L.; [16]): 9.0

SMILES: Cn1c(C(F)(F)F)cc(=O)n(-c2ccc3snc(COC(=O)C4CC4)c3c2)c1=O [Example 496, 2,4(1H,3H)-Pyrimidinedione, 3-[3-(hydroxymethyl)-1,2-benzisothiazol-5-yl]-1-methyl-6-(trifluoromethyl)-, cyclopropanecarboxylate (ester)]
- ECHORC herbicidal rating [1, 8]: 4.0
- ECHORC herbicidal rating [1, 9]: 4.0
- ECHORC herbicidal rating [1, 10]: 6.0
- ECHORC herbicidal rating [1, 11]: 7.0
- CYPIR herbicidal rating (Cyperus iria; [8]): 0.0
- CYPIR herbicidal rating (Cyperus iria; [9]): 7.0
- CYPIR herbicidal rating (Cyperus iria; [10]): 7.0
- CYPIR herbicidal rating (Cyperus iria; [11]): 9.0
- CYPSE herbicidal rating [2, 11]: 7.0
- MOOVA herbicidal rating [3, 8]: 0.0
- MOOVA herbicidal rating [3, 9]: 6.0
- MOOVA herbicidal rating [3, 10]: 6.0
- MOOVA herbicidal rating [3, 11]: 8.0
- SAGPY herbicidal rating (Sagittaria pygmaea, L.; [8]): 0.0
- SAGPY herbicidal rating (Sagittaria pygmaea, L.; [9]): 0.0
- SAGPY herbicidal rating (Sagittaria pygmaea, L.; [10]): 3.0
- SAGPY herbicidal rating (Sagittaria pygmaea, L.; [11]): 6.0
